Test results published in patent US20150224085A1, “METHOD OF ADMINISTERING A 5,5-FUSED HETEROARYLENE HEPATITIS C VIRUS INHIBITOR FOR TREATING OF PREVENTING HEPATITIS C VIRUS INFECTION” (priority 2012, published 2015).
Where two headings read alike, the source gives them in different places.

Legend:
[1] = Phase I/IIa Group A: pharmacokinetics in healthy subjects; assay type: in vivo, human; details: human, plasma, oral, healthy subjects
Description: The phase I/IIa study was designed to evaluate safety and tolerability, pharmacokinetics (PK), food effect, and antiviral activity with regard to the Compound. The key safety parameters that were evaluated in the trial include adverse events (AEs), physical examination, vital signs, 12-lead electrocardiogram (ECG), and standard safety laboratory tests. The key antiviral activity parameters that were evaluated in the trial include changes in plasma HCV RNA and emergence of resistance mutations. The key pharmacokinetic parameters that were evaluated in the trial include plasma and urine concentrations of the Compound. […]
The Compound was first evaluated in a randomized, double-blind, placebo-controlled, sequential dose escalation study in 48 healthy subjects. For each cohort, there were 6 subjects to receive the Compound and 2 subjects to receive placebo. Except cohort 5a, the Compound was administered under fasted conditions.
For the food effect study (cohort 5a), subjects received a single dose of 50 mg of the Compound or placebo on Days 1 and 8, with a 7 day washout between dosing periods. In the food effect study, the subjects were randomized among two groups, differing by fasted/fed dosing sequences as shown in Table 3.

[2] = clinical; details: human, in vivo
Description: (§1) The phase I/IIa study was designed to evaluate safety and tolerability, pharmacokinetics (PK), food effect, and antiviral activity with regard to the Compound. The key safety parameters that were evaluated in the trial include adverse events (AEs), physical examination, vital signs, 12-lead electrocardiogram (ECG), and standard safety laboratory tests. The key antiviral activity parameters that were evaluated in the trial include changes in plasma HCV RNA and emergence of resistance mutations. The key pharmacokinetic parameters that were evaluated in the trial include plasma and urine concentrations of the Compound.
(§2) In the phase I/IIa study, plasma HCV RNA was quantitated using a validated commercial assay (COBAS® TAQMAN®) with a lower limit of quantitation of 25 IU/mL. HCV RNA genotyping was performed at Baseline using the Versant HCV Genotype Assay (LiPA) 2.0.
(§3) In Group C, the Compound was evaluated in a randomized, double-blind, placebo-controlled, parallel dosing study in 34 treatment-naive, genotype 1 HCV-infected subjects.
(§4) In Group D, the Compound was evaluated in an randomized, double-blind, placebo-controlled, parallel dosing study in 30 treatment-naive, genotypes 2, 3, and 4 HCV-infected subjects.
(§5) For all cohorts, dosing was under fasted in this study.

[3] = system: HCV Genotype 2; assay: Phase I/IIa Group D: HCV RNA reduction, 3-day dosing, Genotype 2; assay type: in vivo, hepatitis C virus; details: for Mean (Range) Maximal HCV RNA Reduction from Baseline: n = 4
Description: as §1, §2, §4, §5

[4] = system: HCV Genotype 1b; assay: Phase I/IIa Group C: HCV RNA reduction, 3-day dosing, Genotype 1b; assay type: in vivo, hepatitis C virus
Description: as §1, §2, §3, §5

[5] = system: HCV Genotype 3; assay: Phase I/IIa Group D: HCV RNA reduction, 3-day dosing, Genotype 3; assay type: in vivo, hepatitis C virus; details: n = 4
Description: as §1, §2, §4, §5

[6] = 50 mg, 50 mg single dose, fed, PK Day 1, mean ± SD
[7] = 100 mg, 100 mg QD x 7 days, fasted, PK Day 7, mean ± SD
[8] = 100 mg, 100 mg single dose, fasted, PK Day 1, mean ± SD

COC(=O)N[C@H](C(=O)N1CCC[C@H]1c1nc2cc(-c3csc4c(-c5ccc(-c6cnc([C@@H]7CCCN7C(=O)[C@H](NC(=O)OC)c7ccccc7)[nH]6)cc5)csc34)ccc2[nH]1)C(C)C [the Compound, [(S)-1-((S)-2-{6-[6-(4-{(S)-2-[1-((R)-2-methoxycarbonylamino-2-phenyl-acetyl)-pyrrolidin-2-yl]-3H-imidazol-4-yl}-phenyl)-thieno[3,2-b]thiophen-3-yl]-1H-benzoimidazol-2-yl}-pyrrolidine-1-carbonyl)-2-methyl-propyl]-carbamic acid methyl ester]
Cmax [1, 6]: 13.2 ± 3.3 ng/mL
half-life [1, 6]: 23 ± 3 h
AUC(0-inf) ([1]; 50 mg, 50 mg single dose, fed, PK Day 1, mean ± SD, read-out: AUC0-inf): 335 ± 53.9 ng·h/mL
Tmax ([1]; 50 mg, 50 mg single dose, fed, PK Day 1, median (min-max)): 6 h
Cmax ([1]; 100 mg, 100 mg QD x 7 days, fasted, PK Day 1, mean ± SD): 86.9 ± 25.9 ng/mL
Tmax ([1]; 100 mg, 100 mg QD x 7 days, fasted, PK Day 1, median (min-max)): 4 h
Cmax [1, 7]: 117 ± 39.4 ng/mL
half-life [1, 7]: 21 ± 3.4 h
AUC(0-inf) ([1]; 100 mg, 100 mg QD x 7 days, fasted, PK Day 7, mean ± SD, read-out: AUC0-inf (cell marked with footnote 1)): 1480 ± 489 ng·h/mL
Tmax ([1]; 100 mg, 100 mg QD x 7 days, fasted, PK Day 7, median (min-max)): 3.5 h
Cmax [1, 8]: 83.3 ± 49.1 ng/mL
half-life [1, 8]: 23 ± 2.7 h
AUC(0-inf) ([1]; 100 mg, 100 mg single dose, fasted, PK Day 1, mean ± SD, read-out: AUC0-inf): 1290 ± 402 ng·h/mL
Tmax ([1]; 100 mg, 100 mg single dose, fasted, PK Day 1, median (min-max)): 4 h
AUC0-24 ([2]; 25 mg): 235 ± 79.9 ng·h/mL
Cmax ([2]; 25 mg): 20 ± 6.74 ng/mL
Tmax ([2]; 25 mg): 3.9 (3.0-6.0) hr
AUC(0-t) ([2]; 25 mg, AUC0-24): 142 ± 44.5 ng·h/mL
Cmax ([2]; 25 mg, Cmax): 14 ± 5.19 ng/mL
Tmax ([2]; 25 mg, Tmax): 3.8 h
half-life ([2]; 25 mg, t1/2): 20.8 ± 4.06 h
AUC(0-t) ([2]; 50 mg): 384 ± 204 ng·h/mL
t1/2 ([2]; 50 mg): 19.7 ± 2.0 h
AUC(0-t) ([2]; 50 mg, AUC0-12): 260 ± 102 ng·h/mL
AUC(0-t) ([2]; 50 mg, AUC0-24): 387 ± 115 ng·h/mL
Cmax ([2]; 50 mg, Cmax): 32 ± 8.12 ng/mL
Tmax ([2]; 50 mg, Tmax): 3.4 h
half-life ([2]; 50 mg, t1/2): 23 ± 3.81 h
t1/2 ([2]; 100 mg): 19.3 ± 2.69 h
AUC(0-t) ([2]; 100 mg, AUC0-24): 410 ± 122 ng·h/mL
Cmax ([2]; 100 mg, Cmax): 38 ± 8.6 ng/mL
Tmax ([2]; 100 mg, Tmax): 3.7 h
half-life ([2]; 100 mg, t1/2): 22.9 ± 3.6 h
half-life ([2]; Plasma half-life): ~20 h
Tmax ([2]; Tmax): 3.3 h
half-life ([2]; t1/2): 19.7 ± 5.7 h
Mean (Range) Maximal HCV RNA Reduction from Baseline ([3]; 50 mg BID x 3 days): 2.0 (0.5-4.0) log10 IU/mL
Mean (Range) Maximal HCV RNA Reduction from Baseline ([3]; 100 mg QD x 3 days): 2.0 (0.3-4.1) log10 IU/mL
Mean Max Viral Load Response ([3]; subjects with L31 at BL, L31M at Day 4, 2 subjects): −2.83 log10 IU/mL
Mean Max Viral Load Response ([3]; subjects with L31 at BL, low VL at Day 4 (<1,000 IU/mL), 2 subjects): −4.06 log10 IU/mL
Mean Max Viral Load Response ([3]; subjects with M31 at BL, 3 subjects): −0.45 log10 IU/mL
mean maximal viral load reduction ([3]; total daily dose of 100 mg for 3 days): 2.0 log10 IU/mL
Mean (Range) Maximal HCV RNA Reduction from Baseline ([4]; 25 mg QD x 3 days, n = 3): 3.0 (2.0-4.2) log10 IU/mL
Mean (Range) Maximal HCV RNA Reduction from Baseline ([4]; 50 mg QD x 3 days, n = 2): 4.3 (4.1-4.5) log10 IU/mL
Mean (Range) Maximal HCV RNA Reduction from Baseline ([5]; 50 mg BID x 3 days): 3.3 (2.5-4.6) log10 IU/mL
Mean (Range) Maximal HCV RNA Reduction from Baseline ([5]; 100 mg QD x 3 days): 3.4 (3.1-3.8) log10 IU/mL
